Results as given in article PMC8550792, “Evolution of kinase polypharmacology across HSP90 drug discovery” (Cell Chemical Biology, 2021).

Tests used:
Experiment in all cases: biochemical
Type in all cases: biochemical
382 unique human kinases [1] = target: T1, 382 unique human kinases (Homo sapiens, UniProt Q8IW41); details: MAPKAPK5/PRAK, compound at 10 uM, duplicate values; for remaining activity at 10 µM: read-out: % Enzyme Activity (relative to DMSO controls)
T1 construct: purchased Reaction Biology (HotSpot contract assay)
T1 sequence (Q8IW41 1-473): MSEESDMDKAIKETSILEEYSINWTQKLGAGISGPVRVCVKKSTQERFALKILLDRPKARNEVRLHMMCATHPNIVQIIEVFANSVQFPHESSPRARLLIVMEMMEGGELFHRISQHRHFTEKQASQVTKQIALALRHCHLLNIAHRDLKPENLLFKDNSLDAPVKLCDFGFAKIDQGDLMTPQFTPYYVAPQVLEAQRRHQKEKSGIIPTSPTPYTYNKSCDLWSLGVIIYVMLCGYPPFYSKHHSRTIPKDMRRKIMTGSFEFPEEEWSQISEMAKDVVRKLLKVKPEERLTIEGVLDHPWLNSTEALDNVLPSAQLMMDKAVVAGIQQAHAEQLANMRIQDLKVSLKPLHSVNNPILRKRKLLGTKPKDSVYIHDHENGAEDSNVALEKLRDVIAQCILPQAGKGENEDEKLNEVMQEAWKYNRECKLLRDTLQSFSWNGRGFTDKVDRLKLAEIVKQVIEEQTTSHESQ

382 unique human kinases [2] = target: T2, 382 unique human kinases (Homo sapiens, UniProt P29322); details: kinase EPHA8, compound 10 uM; for remaining activity at 10 µM: read-out: % Enzyme Activity (relative to DMSO controls)
T2 construct: purchased Reaction Biology (HotSpot contract assay)
T2 sequence (P29322 28-1005): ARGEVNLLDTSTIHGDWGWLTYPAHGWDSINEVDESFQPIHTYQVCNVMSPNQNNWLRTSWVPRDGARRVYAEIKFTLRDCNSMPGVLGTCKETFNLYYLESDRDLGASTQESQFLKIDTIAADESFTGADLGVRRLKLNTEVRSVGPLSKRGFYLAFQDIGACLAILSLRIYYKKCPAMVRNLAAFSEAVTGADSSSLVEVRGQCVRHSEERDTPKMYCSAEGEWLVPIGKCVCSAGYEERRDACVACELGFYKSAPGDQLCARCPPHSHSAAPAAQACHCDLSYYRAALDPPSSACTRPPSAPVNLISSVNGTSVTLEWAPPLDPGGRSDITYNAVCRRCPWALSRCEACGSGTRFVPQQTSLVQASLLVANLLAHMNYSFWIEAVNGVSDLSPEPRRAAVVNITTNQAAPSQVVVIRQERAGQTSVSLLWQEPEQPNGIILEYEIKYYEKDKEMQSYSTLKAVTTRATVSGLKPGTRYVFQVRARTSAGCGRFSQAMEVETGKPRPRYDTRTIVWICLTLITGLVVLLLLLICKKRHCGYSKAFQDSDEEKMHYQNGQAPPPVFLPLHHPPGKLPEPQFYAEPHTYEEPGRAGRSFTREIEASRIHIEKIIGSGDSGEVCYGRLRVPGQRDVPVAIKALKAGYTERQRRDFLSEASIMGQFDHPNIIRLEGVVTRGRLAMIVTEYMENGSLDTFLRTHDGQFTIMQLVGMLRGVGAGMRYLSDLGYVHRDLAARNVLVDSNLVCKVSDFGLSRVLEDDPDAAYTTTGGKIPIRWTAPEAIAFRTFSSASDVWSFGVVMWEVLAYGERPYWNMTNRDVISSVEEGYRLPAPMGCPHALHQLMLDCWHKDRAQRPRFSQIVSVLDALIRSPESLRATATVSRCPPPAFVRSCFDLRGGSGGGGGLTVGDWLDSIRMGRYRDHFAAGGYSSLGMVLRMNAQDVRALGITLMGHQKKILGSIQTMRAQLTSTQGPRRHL

382 unique human kinases [3] = target: T3, 382 unique human kinases (Homo sapiens, UniProt P53667); details: LIMK1, 10 uM; for remaining activity at 10 µM: read-out: % Enzyme Activity (relative to DMSO controls)
T3 construct: purchased Reaction Biology (HotSpot contract assay)
T3 sequence (P53667 whole entry): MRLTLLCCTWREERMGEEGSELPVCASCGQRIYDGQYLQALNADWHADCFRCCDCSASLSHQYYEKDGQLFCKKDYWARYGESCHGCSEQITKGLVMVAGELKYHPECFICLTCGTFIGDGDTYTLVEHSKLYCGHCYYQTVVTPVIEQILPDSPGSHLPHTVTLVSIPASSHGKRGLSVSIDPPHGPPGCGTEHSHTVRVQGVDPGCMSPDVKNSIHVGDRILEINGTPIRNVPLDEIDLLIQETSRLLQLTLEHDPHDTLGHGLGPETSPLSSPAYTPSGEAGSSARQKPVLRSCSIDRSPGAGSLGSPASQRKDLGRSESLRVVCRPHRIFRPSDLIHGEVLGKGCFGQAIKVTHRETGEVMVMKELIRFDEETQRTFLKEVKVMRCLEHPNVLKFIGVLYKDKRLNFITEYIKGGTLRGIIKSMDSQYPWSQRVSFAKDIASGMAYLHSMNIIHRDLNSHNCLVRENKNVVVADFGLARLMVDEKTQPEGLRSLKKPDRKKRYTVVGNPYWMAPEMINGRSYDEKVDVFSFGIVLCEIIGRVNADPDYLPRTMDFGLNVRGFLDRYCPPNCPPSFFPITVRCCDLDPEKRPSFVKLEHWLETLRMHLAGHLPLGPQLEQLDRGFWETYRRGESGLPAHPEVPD

382 unique human kinases [4] = target: T4, 382 unique human kinases (Homo sapiens, UniProt Q32MK0); details: MYLK3, 10 uM; for remaining activity at 10 µM: read-out: % Enzyme Activity (relative to DMSO controls)
T4 construct: purchased Reaction Biology (HotSpot contract assay)
T4 sequence (Q32MK0 1-819): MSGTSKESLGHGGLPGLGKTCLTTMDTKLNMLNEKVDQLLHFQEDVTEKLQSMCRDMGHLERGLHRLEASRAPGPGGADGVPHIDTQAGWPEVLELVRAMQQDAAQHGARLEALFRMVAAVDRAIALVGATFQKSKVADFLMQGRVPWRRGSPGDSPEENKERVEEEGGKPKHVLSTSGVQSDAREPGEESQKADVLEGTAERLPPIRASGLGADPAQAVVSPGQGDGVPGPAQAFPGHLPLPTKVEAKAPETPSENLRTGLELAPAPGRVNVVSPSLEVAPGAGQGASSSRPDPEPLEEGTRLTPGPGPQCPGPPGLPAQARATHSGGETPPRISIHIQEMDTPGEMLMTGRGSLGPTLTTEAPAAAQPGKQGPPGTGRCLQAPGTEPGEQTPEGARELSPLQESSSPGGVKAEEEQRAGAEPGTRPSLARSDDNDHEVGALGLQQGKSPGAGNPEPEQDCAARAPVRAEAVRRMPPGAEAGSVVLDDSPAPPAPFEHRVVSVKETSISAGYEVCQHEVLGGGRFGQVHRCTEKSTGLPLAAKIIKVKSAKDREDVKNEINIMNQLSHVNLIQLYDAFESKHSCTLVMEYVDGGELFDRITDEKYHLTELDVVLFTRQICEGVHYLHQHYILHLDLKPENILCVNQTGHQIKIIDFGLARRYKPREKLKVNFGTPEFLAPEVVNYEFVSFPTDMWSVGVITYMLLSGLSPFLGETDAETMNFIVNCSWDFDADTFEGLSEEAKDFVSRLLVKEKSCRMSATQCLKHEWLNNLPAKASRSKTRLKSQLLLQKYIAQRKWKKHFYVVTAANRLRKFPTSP

382 unique human kinases [5] = target: T5, 382 unique human kinases (Homo sapiens, UniProt P07949, S891A); details: RET (S891A), [ATP] 5 µM, compound 10 uM; for remaining activity at 10 µM: read-out: % Enzyme Activity (relative to DMSO controls)
T5 construct: purchased Reaction Biology (HotSpot contract assay)
T5 sequence (P07949 29-1114 S891A): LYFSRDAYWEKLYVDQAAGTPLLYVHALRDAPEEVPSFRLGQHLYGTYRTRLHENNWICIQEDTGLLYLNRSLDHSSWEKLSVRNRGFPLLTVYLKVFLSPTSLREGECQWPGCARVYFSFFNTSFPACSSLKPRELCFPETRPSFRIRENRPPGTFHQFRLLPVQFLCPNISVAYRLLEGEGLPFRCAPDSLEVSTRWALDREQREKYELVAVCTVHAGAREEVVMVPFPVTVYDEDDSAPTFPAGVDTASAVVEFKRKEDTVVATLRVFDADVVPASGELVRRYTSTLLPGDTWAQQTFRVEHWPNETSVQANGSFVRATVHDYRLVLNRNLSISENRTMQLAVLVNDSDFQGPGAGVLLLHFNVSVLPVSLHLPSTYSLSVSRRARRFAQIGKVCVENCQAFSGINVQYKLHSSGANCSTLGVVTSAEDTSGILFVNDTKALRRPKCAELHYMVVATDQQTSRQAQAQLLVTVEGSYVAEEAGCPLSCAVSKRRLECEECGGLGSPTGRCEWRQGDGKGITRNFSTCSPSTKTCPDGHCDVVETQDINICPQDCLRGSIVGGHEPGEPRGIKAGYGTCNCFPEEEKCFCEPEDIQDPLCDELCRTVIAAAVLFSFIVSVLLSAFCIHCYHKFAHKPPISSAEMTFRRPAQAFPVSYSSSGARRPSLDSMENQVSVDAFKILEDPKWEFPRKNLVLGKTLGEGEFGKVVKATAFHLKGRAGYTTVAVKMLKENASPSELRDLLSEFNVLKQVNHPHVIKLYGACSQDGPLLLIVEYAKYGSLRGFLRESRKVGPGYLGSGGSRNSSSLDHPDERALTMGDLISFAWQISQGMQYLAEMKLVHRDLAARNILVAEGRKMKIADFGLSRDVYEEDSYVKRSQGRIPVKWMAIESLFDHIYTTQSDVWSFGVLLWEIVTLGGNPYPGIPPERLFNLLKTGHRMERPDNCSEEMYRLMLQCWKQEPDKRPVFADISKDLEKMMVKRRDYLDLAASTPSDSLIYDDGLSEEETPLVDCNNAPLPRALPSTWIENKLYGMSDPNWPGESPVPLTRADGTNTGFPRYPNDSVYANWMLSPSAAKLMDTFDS

382 unique human kinases [6] = target: T6, 382 unique human kinases (Homo sapiens, UniProt P10721, D816F); details: c-Kit (D816F), [ATP] 20 µM, compound 10 uM; for remaining activity at 10 µM: read-out: % Enzyme Activity (relative to DMSO controls)
T6 construct: purchased Reaction Biology (HotSpot contract assay)
T6 sequence (P10721 26-976 D816F): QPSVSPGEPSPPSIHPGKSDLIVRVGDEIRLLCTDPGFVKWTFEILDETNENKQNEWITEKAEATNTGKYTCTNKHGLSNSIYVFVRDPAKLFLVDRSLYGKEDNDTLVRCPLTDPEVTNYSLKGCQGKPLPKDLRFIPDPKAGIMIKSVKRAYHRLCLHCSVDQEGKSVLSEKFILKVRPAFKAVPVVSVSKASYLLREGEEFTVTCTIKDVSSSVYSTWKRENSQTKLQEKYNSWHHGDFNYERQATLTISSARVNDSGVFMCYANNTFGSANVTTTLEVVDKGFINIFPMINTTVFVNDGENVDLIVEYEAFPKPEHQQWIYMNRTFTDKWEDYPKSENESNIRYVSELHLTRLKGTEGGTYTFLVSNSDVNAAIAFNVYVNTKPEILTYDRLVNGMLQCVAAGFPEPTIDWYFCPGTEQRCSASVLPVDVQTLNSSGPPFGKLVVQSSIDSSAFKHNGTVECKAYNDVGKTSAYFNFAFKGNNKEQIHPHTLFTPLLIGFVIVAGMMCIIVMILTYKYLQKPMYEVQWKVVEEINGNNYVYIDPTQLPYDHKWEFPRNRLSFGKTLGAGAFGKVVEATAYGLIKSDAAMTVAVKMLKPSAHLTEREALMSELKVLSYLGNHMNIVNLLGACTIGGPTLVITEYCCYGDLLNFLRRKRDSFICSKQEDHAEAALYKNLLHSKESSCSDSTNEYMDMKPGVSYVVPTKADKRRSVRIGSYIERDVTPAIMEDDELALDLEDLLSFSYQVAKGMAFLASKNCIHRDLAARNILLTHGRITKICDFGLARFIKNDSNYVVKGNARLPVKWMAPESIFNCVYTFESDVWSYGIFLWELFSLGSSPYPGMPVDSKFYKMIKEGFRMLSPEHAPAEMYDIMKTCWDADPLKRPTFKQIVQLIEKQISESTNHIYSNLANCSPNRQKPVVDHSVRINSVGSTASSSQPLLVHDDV

382 unique human kinases [7] = target: T7, 382 unique human kinases (Homo sapiens, UniProt P51812, I416V); details: RSK2 (I416V), [ATP] 10 µM, compound 10 uM; for remaining activity at 10 µM: read-out: % Enzyme Activity (relative to DMSO controls)
T7 construct: purchased Reaction Biology (HotSpot contract assay)
T7 sequence (P51812 whole entry I416V): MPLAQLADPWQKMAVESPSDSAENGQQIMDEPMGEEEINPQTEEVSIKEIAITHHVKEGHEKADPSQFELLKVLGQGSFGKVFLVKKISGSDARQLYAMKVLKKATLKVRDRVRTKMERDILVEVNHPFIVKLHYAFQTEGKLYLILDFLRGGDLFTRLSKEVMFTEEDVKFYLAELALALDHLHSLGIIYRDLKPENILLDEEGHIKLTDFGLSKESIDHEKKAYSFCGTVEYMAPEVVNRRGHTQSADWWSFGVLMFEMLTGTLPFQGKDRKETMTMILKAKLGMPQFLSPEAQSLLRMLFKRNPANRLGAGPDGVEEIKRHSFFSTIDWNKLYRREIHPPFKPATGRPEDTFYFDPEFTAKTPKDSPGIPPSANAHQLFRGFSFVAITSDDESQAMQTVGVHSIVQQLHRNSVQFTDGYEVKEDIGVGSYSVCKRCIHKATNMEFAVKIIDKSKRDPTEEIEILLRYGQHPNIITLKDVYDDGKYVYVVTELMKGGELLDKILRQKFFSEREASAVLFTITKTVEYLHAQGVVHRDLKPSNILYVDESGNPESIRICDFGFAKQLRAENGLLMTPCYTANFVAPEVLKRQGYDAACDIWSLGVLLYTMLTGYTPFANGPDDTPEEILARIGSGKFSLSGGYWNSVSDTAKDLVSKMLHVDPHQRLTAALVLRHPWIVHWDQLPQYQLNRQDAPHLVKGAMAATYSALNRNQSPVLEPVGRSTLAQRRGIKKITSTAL

382 unique human kinases [8] = target: T8, 382 unique human kinases (Homo sapiens, UniProt Q16584); details: MLK3/MAP3K11, 10 uM; for remaining activity at 10 µM: read-out: % Enzyme Activity (relative to DMSO controls)
T8 construct: purchased Reaction Biology (HotSpot contract assay)
T8 sequence (Q16584 whole entry): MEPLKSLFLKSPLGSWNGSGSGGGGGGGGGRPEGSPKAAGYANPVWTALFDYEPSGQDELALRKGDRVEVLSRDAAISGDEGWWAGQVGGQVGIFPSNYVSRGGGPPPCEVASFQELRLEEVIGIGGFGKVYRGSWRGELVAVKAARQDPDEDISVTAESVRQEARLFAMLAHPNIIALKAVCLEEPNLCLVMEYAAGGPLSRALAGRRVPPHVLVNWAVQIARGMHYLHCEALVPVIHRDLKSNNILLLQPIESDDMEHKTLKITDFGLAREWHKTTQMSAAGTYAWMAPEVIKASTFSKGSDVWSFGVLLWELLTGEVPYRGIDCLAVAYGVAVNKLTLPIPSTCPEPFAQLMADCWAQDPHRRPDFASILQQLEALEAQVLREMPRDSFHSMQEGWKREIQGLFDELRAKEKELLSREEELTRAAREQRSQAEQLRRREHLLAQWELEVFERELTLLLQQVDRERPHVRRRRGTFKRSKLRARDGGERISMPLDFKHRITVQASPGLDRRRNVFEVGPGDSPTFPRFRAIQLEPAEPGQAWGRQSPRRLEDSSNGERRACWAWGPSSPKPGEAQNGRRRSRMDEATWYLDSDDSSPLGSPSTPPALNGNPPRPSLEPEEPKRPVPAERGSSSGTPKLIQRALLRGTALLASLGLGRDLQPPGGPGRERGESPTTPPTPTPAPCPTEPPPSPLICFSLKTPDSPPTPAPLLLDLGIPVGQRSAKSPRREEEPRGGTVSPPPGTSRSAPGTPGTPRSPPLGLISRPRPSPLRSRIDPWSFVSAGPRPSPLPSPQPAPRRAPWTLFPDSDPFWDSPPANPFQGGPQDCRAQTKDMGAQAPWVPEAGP

382 unique human kinases [9] = target: T9, 382 unique human kinases (Homo sapiens, UniProt P08581, P991S); details: c-MET (P991S), 10 uM; for remaining activity at 10 µM: read-out: % Enzyme Activity (relative to DMSO controls)
T9 construct: purchased Reaction Biology (HotSpot contract assay)

Structure (SMILES) | remaining activity at 10 µM (382 unique human kinases [1]) [%] | remaining activity at 10 µM (382 unique human kinases [2]) [%] | remaining activity at 10 µM (382 unique human kinases [3]) [%] | remaining activity at 10 µM (382 unique human kinases [4]) [%] | remaining activity at 10 µM (382 unique human kinases [5]) [%] | remaining activity at 10 µM (382 unique human kinases [6]) [%] | remaining activity at 10 µM (382 unique human kinases [7]) [%] | remaining activity at 10 µM (382 unique human kinases [8]) [%] | remaining activity at 10 µM (382 unique human kinases [9]) [%] | % Enzyme Activity (relative to DMSO controls) (382 unique human kinases [1]) [%] | % Enzyme Activity (relative to DMSO controls) (382 unique human kinases [2]) [%] | % Enzyme Activity (relative to DMSO controls) (382 unique human kinases [3]) [%] | % Enzyme Activity (relative to DMSO controls) (382 unique human kinases [4]) [%] | % Enzyme Activity (relative to DMSO controls) (382 unique human kinases [5]) [%] | % Enzyme Activity (relative to DMSO controls) (382 unique human kinases [6]) [%] | % Enzyme Activity (relative to DMSO controls) (382 unique human kinases [7]) [%] | % Enzyme Activity (relative to DMSO controls) (382 unique human kinases [8]) [%] | % Enzyme Activity (relative to DMSO controls) (382 unique human kinases [9]) [%]
CC(C)c1cc(-c2n[nH]c(=O)n2-c2ccc3c(ccn3C)c2)c(O)cc1O [Ganetespib (STA9090)] | 102 | 95.2 | 67.6 | – | – | – | – | – | – | – | – | – | – | – | – | – | – | –
CC(C)c1cc(-c2n[nH]c(=O)n2-c2ccc3c(ccn3C)c2)c(O)cc1O [Ganetespib] | – | – | – | 100 | 20.2 | 31 | 56.7 | 91 | 109 | – | – | – | – | – | – | – | – | –
CCNC(=O)c1noc(-c2cc(C(C)C)c(O)cc2O)c1-c1ccc(CN2CCOCC2)cc1 [Luminespib (AUY-922)] | 104 | 94.1 | 102 | – | – | – | – | – | – | 101.76 | 92.42 | 101.40 | – | – | – | – | – | –
CCNC(=O)c1noc(-c2cc(C(C)C)c(O)cc2O)c1-c1ccc(CN2CCOCC2)cc1 [Luminespib] | – | – | – | 100 | 89.3 | 70.9 | 88.9 | 104 | 100 | – | – | – | 99.89 | 88.26 | 70.41 | 87.06 | 103.89 | 98.52
